The target in one series is T1, Caspase-3 (Homo sapiens, UniProt P42574).
T1 sequence (P42574 whole entry): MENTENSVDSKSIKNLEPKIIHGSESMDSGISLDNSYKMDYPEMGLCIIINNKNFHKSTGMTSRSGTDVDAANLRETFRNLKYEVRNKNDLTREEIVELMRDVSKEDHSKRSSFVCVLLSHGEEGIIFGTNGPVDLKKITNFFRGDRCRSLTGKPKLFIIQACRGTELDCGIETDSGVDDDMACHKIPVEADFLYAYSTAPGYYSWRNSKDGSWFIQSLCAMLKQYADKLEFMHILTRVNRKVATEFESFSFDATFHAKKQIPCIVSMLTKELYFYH
Briefly: Inhibition of human recombinant caspase-3 using […] as substrate after 10 mins by fluorescence assay.

Series [1] can be described thus: Solubility of the compound in water. Type of series: physicochemical. The note with it: buffer.
A further series has as its target T2, Caspase-7 (Homo sapiens, UniProt P55210).
T2 sequence (P55210 whole entry): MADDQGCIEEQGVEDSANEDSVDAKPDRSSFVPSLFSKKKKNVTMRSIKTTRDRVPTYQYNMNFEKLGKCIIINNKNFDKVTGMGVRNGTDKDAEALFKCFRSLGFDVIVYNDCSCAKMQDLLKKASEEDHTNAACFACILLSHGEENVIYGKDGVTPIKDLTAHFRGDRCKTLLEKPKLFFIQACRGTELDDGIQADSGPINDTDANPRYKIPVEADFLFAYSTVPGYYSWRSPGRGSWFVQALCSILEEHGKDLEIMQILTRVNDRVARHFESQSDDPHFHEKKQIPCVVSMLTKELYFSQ
Description: Inhibition of human recombinant caspase-7 using Ac-DEVD-AMC as substrate after 10 mins by fluorescence assay.

Another series concerns Jurkat. Briefly: Antiapoptotic activity in human Jurkat T cells assessed as protection against camptothecin-induced apoptosis at 50 uM treated 2 hrs before camptothecin addition measured after 4 hrs using annexin V-FITC and 7-AAD staining by flow cytometry. Type of series: functional, cell-based. (In general: A flow cytometer gives signals particle by particle.)

We go through four compounds from ChEMBL document CHEMBL3232821, “1,2-benzisothiazol-3-one derivatives as a novel class of small-molecule caspase-3 inhibitors” (Bioorg Med Chem, 2014).

SMILES strings stand for the structures. pIC50: −log10 of the molar value. Calls of active or inactive are those of the source. The rule behind the calls is not given here.

By pIC50 is commonly meant the negative decadic logarithm of the IC50, by convention in mol/L.

Regarding `O=C(Nc1ccc(N2CCOCC2)cc1)n1sc2ccccc2c1=O`, the negative-log IC50 (pIC50) on Caspase-3 was 8.94; on Caspase-7, 6.04. The solubility entry in series [1] was “Insoluble”.
Regarding `O=C(NCc1ccc(N2CCOCC2)cc1)n1sc2ccccc2c1=O`, in the series on Jurkat, the outcome was Active. The solubility entry in series [1] was “soluble”. Besides, at Caspase-7, the pIC50 was 3.61.
For the compound `O=c1[nH]sc2ccccc12`, the pIC50 at Caspase-7 is 3.86.
On to `O=C(Cn1sc2ccccc2c1=O)Nc1ccc(N2CCOCC2)cc1`, for which the pIC50 at Caspase-7 is 4.00.
